Experimental data from PubChem BioAssay (NCI).
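Cells were grown in 96-well plates and exposed to each compound for 48 hours at five concentrations; endpoints were interpolated linearly between bracketing concentrations, or set to the highest concentration if not reached. TGI is the concentration that stops growth completely.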

What was measured:
Assay in all cases: NCI tumour cell line growth inhibition, 48 h
ACHN renal = tested on: ACHN renal
CCRF-CEM leukemia = tested on: CCRF-CEM leukemia
COLO 205 colon = tested on: COLO 205 colon
HCC-2998 colon = tested on: HCC-2998 colon
SF-268 CNS = tested on: SF-268 CNS
SF-539 CNS = tested on: SF-539 CNS
SK-OV-3 ovarian = tested on: SK-OV-3 ovarian
SNB-75 CNS = tested on: SNB-75 CNS
U251 CNS = tested on: U251 CNS
HOP-92 NSCLC = tested on: HOP-92 NSCLC
HS 578T breast = tested on: HS 578T breast
MDA-MB-435 = tested on: MDA-MB-435
MDA-N = tested on: MDA-N
HCT-116 colon = tested on: HCT-116 colon
DU-145 prostate = tested on: DU-145 prostate
A498 renal = tested on: A498 renal

With COc1ccc(C2ON(c3ccccn3)CC=C2C)cc1 (configuration not stated) the TGI (ACHN renal) was > 100 µM, the TGI (CCRF-CEM leukemia) was > 100 µM and the TGI (COLO 205 colon) was > 100 µM. For the same compound, the TGI (HCC-2998 colon) was > 100 µM, the TGI (SF-268 CNS) was > 100 µM and the TGI (SF-539 CNS) was > 100 µM. The TGI (SK-OV-3 ovarian) was > 100 µM, the TGI (SNB-75 CNS) was > 100 µM and the TGI (U251 CNS) was > 100 µM.
With Cc1c(C(=O)O)c2cc3ccccc3cc2c(=O)n1C the TGI (ACHN renal) was > 10 µM, the TGI (HCC-2998 colon) was > 10 µM and the TGI (HOP-92 NSCLC) was > 10 µM. The TGI (HS 578T breast) was > 10 µM, the TGI (MDA-MB-435) was > 10 µM and the TGI (MDA-N) was > 10 µM. The TGI (SF-268 CNS) was > 10 µM, the TGI (SF-539 CNS) was > 10 µM and the TGI (SK-OV-3 ovarian) was > 10 µM. The TGI (SNB-75 CNS) was > 10 µM and the TGI (U251 CNS) was > 10 µM.
With O=C1c2nn(-c3ccccc3)nc2C(c2ccccc2)N1c1ccccc1 (configuration not stated) the TGI (ACHN renal) was > 100 µM, the TGI (CCRF-CEM leukemia) was > 100 µM and the TGI (COLO 205 colon) was > 100 µM. For the same compound, the TGI (HCC-2998 colon) was > 100 µM, the TGI (HCT-116 colon) was > 100 µM and the TGI (SF-268 CNS) was > 100 µM. The TGI (SF-539 CNS) was > 100 µM, the TGI (SNB-75 CNS) was 81.2 µM and the TGI (U251 CNS) was > 100 µM.
For CC1(C)CN=C(Nc2ccc(Cl)cc2)S1, the TGI (ACHN renal) was > 100 µM, the TGI (CCRF-CEM leukemia) was > 100 µM and the TGI (COLO 205 colon) was > 100 µM. The TGI (DU-145 prostate) was > 100 µM, the TGI (HCC-2998 colon) was > 100 µM and the TGI (HCT-116 colon) was > 100 µM. The TGI (HOP-92 NSCLC) was > 100 µM, the TGI (HS 578T breast) was > 100 µM and the TGI (MDA-MB-435) was > 100 µM. For the same compound, the TGI (MDA-N) was > 100 µM, the TGI (SF-268 CNS) was > 100 µM and the TGI (SF-539 CNS) was > 100 µM. The TGI (SK-OV-3 ovarian) was > 100 µM, the TGI (SNB-75 CNS) was > 100 µM and the TGI (U251 CNS) was > 100 µM.
In the case of O=C1C2CCC(C2)C12CC1(c3ccccc3)C(=O)c3ccccc3N1O2 (configuration not stated), the TGI (A498 renal) is reported as > 100 µM, the TGI (ACHN renal) is reported as > 100 µM and the TGI (CCRF-CEM leukemia) is reported as > 100 µM. For the same compound, the TGI (COLO 205 colon) was > 100 µM, the TGI (HCC-2998 colon) was > 100 µM and the TGI (HCT-116 colon) was > 100 µM. For the same compound, the TGI (HOP-92 NSCLC) was > 100 µM, the TGI (SF-268 CNS) was > 100 µM and the TGI (SF-539 CNS) was > 100 µM. For the same compound, the TGI (SK-OV-3 ovarian) was > 100 µM, the TGI (SNB-75 CNS) was > 100 µM and the TGI (U251 CNS) was > 100 µM.
In the case of COc1ccc(C2=NN(c3ccccc3)C(c3cc4cc(Br)ccc4nc3Cl)C2)cc1 (configuration not stated), the TGI (CCRF-CEM leukemia) is reported as > 25 µM, the TGI (COLO 205 colon) is reported as > 25 µM and the TGI (DU-145 prostate) is reported as > 25 µM. The TGI (HCT-116 colon) was > 25 µM, the TGI (HOP-92 NSCLC) was > 25 µM and the TGI (HS 578T breast) was > 25 µM. For the same compound, the TGI (MDA-MB-435) was > 25 µM, the TGI (MDA-N) was > 25 µM and the TGI (SF-268 CNS) was > 25 µM. For the same compound, the TGI (SF-539 CNS) was > 25 µM, the TGI (SK-OV-3 ovarian) was > 25 µM and the TGI (SNB-75 CNS) was > 25 µM.
For Cc1ccc(S(=O)(=O)Oc2ccc(OS(=O)(=O)c3ccc(C)cc3)c3c2C(=O)c2ccccc2C3=O)cc1, the TGI (ACHN renal) was > 100 µM, the TGI (CCRF-CEM leukemia) was > 100 µM and the TGI (COLO 205 colon) was > 100 µM. For the same compound, the TGI (DU-145 prostate) was > 100 µM, the TGI (HCC-2998 colon) was > 100 µM and the TGI (HCT-116 colon) was > 100 µM. For the same compound, the TGI (HOP-92 NSCLC) was > 100 µM, the TGI (HS 578T breast) was > 100 µM and the TGI (MDA-MB-435) was > 100 µM. For the same compound, the TGI (MDA-N) was > 100 µM, the TGI (SF-268 CNS) was > 100 µM and the TGI (SF-539 CNS) was > 100 µM. The TGI (SK-OV-3 ovarian) was > 100 µM, the TGI (SNB-75 CNS) was 64.1 µM and the TGI (U251 CNS) was > 100 µM.
CC(C)[Si](OC1=C(C(=O)N(C)c2ccccc2Cl)CCC1)(C(C)C)C(C)C showed a TGI (A498 renal) of 30.7 µM, a TGI (ACHN renal) of 36.3 µM and a TGI (COLO 205 colon) of 34.3 µM. The TGI (DU-145 prostate) was 44.3 µM, the TGI (HCT-116 colon) was 37 µM and the TGI (HOP-92 NSCLC) was 32.7 µM. It also gave a TGI (MDA-MB-435) of 42.7 µM, a TGI (MDA-N) of 38.8 µM and a TGI (SF-268 CNS) of 33.4 µM. The TGI (SF-539 CNS) was 39.5 µM, the TGI (SK-OV-3 ovarian) was 32.8 µM and the TGI (SNB-75 CNS) was 29.1 µM. For the same compound, the TGI (U251 CNS) was 31.1 µM.
Work on CC(C)C(=O)/C=C/c1ccc(Cl)cc1 yielded a TGI (ACHN renal) of 28.5 µM, a TGI (CCRF-CEM leukemia) of 51.7 µM and a TGI (COLO 205 colon) of 59.9 µM. It also gave a TGI (HCC-2998 colon) of 31.9 µM, a TGI (HCT-116 colon) of 11.5 µM and a TGI (HOP-92 NSCLC) of 31.6 µM. The TGI (SF-268 CNS) was 67.5 µM, the TGI (SF-539 CNS) was 22.6 µM and the TGI (SK-OV-3 ovarian) was > 100 µM. It also gave a TGI (SNB-75 CNS) of 33.4 µM and a TGI (U251 CNS) of 25.5 µM.
